For this assay, the target named is T1, JNK3(h) (Homo sapiens, UniProt P53779).
T1 construct: purchased Reaction Biology Corp
The assay can be described thus: Kinase HotSpot radiometric assay, JNK3. The class given is biochemical. The conditions noted are these: ATP 10 μM, substrate ATF2 5 μM; read-out: JNK3 inhibitory activity IC50.

We go through 13 compounds from publication PMC8539420, “Discovery of a Potent and Selective JNK3 Inhibitor with Neuroprotective Effect Against Amyloid β-Induced Neurotoxicity in Primary Rat Neurons” (International Journal of Molecular Sciences, 2021).

Molecules are shown by their SMILES.

T1 sequence (P53779 whole entry): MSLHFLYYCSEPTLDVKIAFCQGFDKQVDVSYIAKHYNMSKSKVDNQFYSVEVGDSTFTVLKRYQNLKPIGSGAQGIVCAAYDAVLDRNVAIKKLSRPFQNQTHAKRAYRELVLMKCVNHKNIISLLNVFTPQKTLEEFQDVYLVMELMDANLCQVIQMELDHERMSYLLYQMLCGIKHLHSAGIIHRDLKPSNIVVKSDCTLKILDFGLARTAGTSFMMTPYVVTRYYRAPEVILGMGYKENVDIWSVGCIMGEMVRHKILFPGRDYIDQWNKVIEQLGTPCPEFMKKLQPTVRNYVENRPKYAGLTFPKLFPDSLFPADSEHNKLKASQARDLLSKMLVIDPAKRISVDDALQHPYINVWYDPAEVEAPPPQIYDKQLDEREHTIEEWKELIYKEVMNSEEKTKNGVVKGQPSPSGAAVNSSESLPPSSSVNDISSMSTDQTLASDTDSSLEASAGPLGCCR

For orientation: IC50 means the midpoint of a concentration-inhibition curve. Take `Oc1ccc2c(c1)nc(-c1ccc3c(c1)OCCO3)n2-c1ccnc(NC2CCCCC2)n1` [10b, 1-(2-(Cyclohexylamino)pyrimidin-4-yl)-2-(2,3-dihydrobenzo[b][1, 4]dioxin-6-yl)-1H-benzo [d]imidazol-5-ol]: the half-inhibitory concentration (IC50) was 1.21 µM.
`Oc1ccc2nc(-c3ccc4c(c3)OCCO4)n(-c3ccnc(NC4CCCCC4)n3)c2c1` [23b, 1-(2-(Cyclohexylamino)pyrimidin-4-yl)-2-(2,3-dihydrobenzo[b][1,4]dioxin-6-yl)-1H-benzo [d]imidazol-6-ol]: the half-maximal inhibitory concentration (IC50) came to 0.281 µM.
Next, `O=C(C1CC1)N1CCC[C@H](Nc2nccc(-n3c(-c4ccc5ccccc5n4)nc4ccc(O)cc43)n2)C1` [26f, (S)-Cyclopropyl(3-((4-(6-hydroxy-2-(quinolin-2-yl)-1H-benzo[d]imidazol-1-yl)pyrimidin-2-yl)amino)piperidin-1-yl)methanone]: 0.189 µM.
In the case of `Oc1ccc2nc(-c3ccc4ccccc4c3)n(-c3ccnc(NC4CCCCC4)n3)c2c1` [23a, 1-(2-(Cyclohexylamino)pyrimidin-4-yl)-2-(naphthalen-2-yl)-1H-benzo[d]imidazol-6-ol], the half-inhibitory concentration (IC50) turned out to be 0.045 µM.
As to `O=C(C1CC1)N1CCC[C@H](Nc2nccc(-n3c(-c4ccc5ccccc5c4)nc4cc(O)ccc43)n2)C1` [13a, (S)-cyclopropyl(3-((4-(5-hydroxy-2-(naphthalen-2-yl)-1H-benzo[d]imidazol-1-yl)pyrimidin-2-yl)amino)piperidin-1-yl)methanone], the IC50 is 0.391 µM.
Next, `O=C(C1CC1)N1CCC[C@H](Nc2nccc(-n3c(-c4ccc(F)c(C(F)(F)F)c4)nc4cc(O)ccc43)n2)C1` [13e, (S)-Cyclopropyl(3-((4-(2-(4-fluoro-3-(trifluoromethyl)phenyl)-5-hydroxy-1H-benzo[d]imidazol-1-yl)pyrimidin-2-yl)amino)piperidin-1-yl)methanone]: 0.679 µM; `Oc1ccc2nc(-c3ccc4ccccc4c3)n(-c3ccnc(NC4CCOCC4)n3)c2c1` [22a, 2-(Naphthalen-2-yl)-1-(2-((tetrahydro-2H-pyran-4-yl)amino)pyrimidin-4-yl)-1H-benzo[d]imidazol-6-ol]: 1.43 µM; `Oc1ccc2c(c1)nc(-c1ccc3occc3c1)n2-c1ccnc(NC2CCOCC2)n1` [9c, 2-(Benzofuran-5-yl)-1-(2-((tetrahydro-2H-pyran-4-yl)amino)pyrimidin-4-yl)-1H-benzo[d] imidazol-5-ol]: 4.31 µM.
Next, `Oc1ccc2nc(-c3ccc4ccccc4n3)n(-c3ccnc(NC4CCCCC4)n3)c2c1` [23f, 1-(2-(Cyclohexylamino)pyrimidin-4-yl)-2-(quinolin-2-yl)-1H-benzo[d]imidazol-6-ol]: 0.424 µM; `Oc1ccc2nc(-c3ccc(Cl)c(Cl)c3)n(-c3ccnc(NC4CCCCC4)n3)c2c1` [23d, 1-(2-(Cyclohexylamino)pyrimidin-4-yl)-2-(3,4-dichlorophenyl)-1H-benzo[d]imidazol-6-ol]: 0.11 µM.
Next, `Oc1ccc2c(c1)nc(-c1ccc3ccccc3n1)n2-c1ccnc(NC2CCCCC2)n1` [10f, 1-(2-(Cyclohexylamino)pyrimidin-4-yl)-2-(quinolin-2-yl)-1H-benzo[d]imidazol-5-ol]: 0.424 µM; `O=C(C1CC1)N1CCC[C@H](Nc2nccc(-n3c(-c4ccc5c(c4)OCCO5)nc4ccc(O)cc43)n2)C1` [26b, (S)-Cyclopropyl(3-((4-(2-(2,3-dihydrobenzo[b][1,4]dioxin-6-yl)-6-hydroxy-1H-benzo[d]imidazol-1-yl)pyrimidin-2-yl)amino)piperidin-1-yl)methanone]: 0.114 µM.
With `Oc1ccc2c(c1)nc(-c1ccc(Cl)c(Cl)c1)n2-c1ccnc(NC2CCCCC2)n1` [10d, 1-(2-(Cyclohexylamino)pyrimidin-4-yl)-2-(3,4-dichlorophenyl)-1H-benzo[d]imidazol-5-ol], the IC50 was found to be 0.139 µM.
